Test results from patent US7507739B2, “6-[(substituted)phenyl]triazolopyrimidines as anticancer agents” (Wyeth, priority 2003, dated 2009).
Where two headings read alike, the source gives them in different places. Marks after values point to notes of the source that are not given here.

Legend:
HL-60 cells = test: MTS cytotoxicity test with HL-60 cells; type: cell-based; conditions: Homo sapiens
From the text: (§1) Human cancer cell lines, unless otherwise noted, are obtained from the American Type Culture Collection (Rockville, Md.). The following drug-sensitive parental cell lines, and their derived drug-resistant counterparts, are obtained from the originators as listed: (a) S1 (parental line from a subclone of human colon carcinoma line LS174T) and derived S1-M1-3.2 (herein called S1-M1) which expresses the MXR drug transporter protein, are provided by Dr. L. Greenberger, Wyeth Research (Rabindran, S. K., He, H., Singh, M., Brown, E., Collins, K. I., Annable, T., and Greenberger, L. M. Reversal of a novel multidrug resistance mechanism in human colon carcinoma cells by fumitremorgin C. Cancer Res., 58:5850-5858,1998); (b) parental HL-60 human promyelocytic leukemia line and derived HL-60/ADR, which expresses the MRP1 drug transporter protein, are provided by Dr. M. Center, University of Kansas (McGrath, T., and Center, M. S. Adriamycin resistance in HL60 cells in the absence of detectable P-glycoprotein. Biochem. Biophys. […] J. Biol. Chem., 261: 7762-7770,1986) via Dr. L. Greenberger, Wyeth Research.
(§2) The assay, which is sold in kit form by Promega (Madison, Wis.; CellTiter 96 AQueous Non-Radioactive Cell Proliferation Assay), is based on the conversion by viable cells, but not by dead cells, of the tetrazolium salt, MTS (3-(4,5-dimethylthiazol-2-yl)-5-(3-carboxymethoxyphenyl)-2-(4-sulphophenyl)-2H-tetrazolium, inner salt), into a water-soluble colored formazan which is detected by spectrophotometry. Compounds are tested at nine concentrations, in order to determine IC50 values. For the test procedure, cells are harvested by trypsinization (or, in the case of non-adherent cells, by simple resuspension), washed, counted and distributed to wells of 96-well flat-bottom microtiter plates at 1000 cells per well in 200 μL of medium. In addition, one row of wells on a separate plate received cells as above (“time 0” plate). All plates are incubated at 37° in humidified 5% CO2 in air for about 24 hr.
(§3) On day 2, compounds for test are diluted and added to wells. Compounds are dissolved in DMSO at 10 mg/mL. For each compound, nine serial 2-fold dilutions are prepared in DMSO. Ten μL of each dilution in DMSO is transferred to 100 μL of medium, mixed well, and then 5 μL of this dilution is transferred in quadruplicate to wells containing cells. […] Plates are returned to the incubator for three days. At the time of drug addition to the experimental plates, the MTS assay is run on the “time 0” plate. This produced the “time 0 MTS value” which is related to the number of viable cells per well at the time of drug addition.
(§4) After three days of culture with test compounds (day 5 overall), the MTS assay is done on all wells of the experimental plates. The absorbance values of the quadruplicate sample wells are averaged and divided by the average of the “time 0” values. […] The nine values for each compound are plotted against concentration, and the concentration that produced a relative color yield half way between the maximum and minimum is taken as the IC50 value.
(§5) HL-60/ADR cells overexpress the multidrug resistance protein MRP1 which mediates resistance to some chemotherapeutics (Gottesman, M. M., Fojo, T., and Bates, S. E. Multidrug resistance in cancer: role of ATP-dependent transporters. Nature Rev. Cancer, 2: 48-58, 2002). The IC50 values of representative examples of this invention, as well as reference compounds, on HL-60/ADR are compared to values on the sensitive parental HL-60 line.

[1] = system: DLD1 Human Colon Carcinoma; test: Human tumor xenograft test, DLD1; type: in vivo; conditions: days 1, 5, 9, 13
Procedure: The ability of compounds of this invention to inhibit tumor growth in animals is studied in the athymic mouse xenograft standard pharmacological test. Female nu/nu mice in an outbred albino background are obtained from Charles River Laboratories (Wilmington, Mass.). Animals are injected subcutaneously on the flank with the desired tumor cell suspension. Several days later, mice with tumors of approximately 150 mm^3 are selected from those injected (staged) and randomly distributed into groups of 5-10. The day of staging is called day 0. Compounds of the invention, usually formulated in saline (exceptions are noted in tables), are administered to animals by intravenous injection or oral gavage on various schedules starting on day 0 or 1, as noted in the tables. The control group in each experiment is dosed with vehicle on the same schedule. Tumor size is measured every 3-7 days with calipers in two orthogonal dimensions, and tumor volume is calculated from the formula volume=[(length×width^2)/2].
Tumor/Control (T/C) is obtained by dividing the mean tumor volume of the treated group by the mean tumor volume of the control group on each measurement day. A treatment dose is defined as active if it produced a statistically significant T/C of 0.50 or less. A p value≦0.05, determined by one-side Student's t-test, is required for statistical significance. A treatment dose is defined as toxic if more than 10% of the animals died from a compound-related toxicity.

HL-60/ADR cells = test: MTS cytotoxicity test with HL-60/ADR cells (MRP1); type: cell-based, human; conditions: for IC50: Homo sapiens, HL60/ADR, read-out: IC50 HL-60/ADR; for Ratio: IC50 on HL-60/ADR cells/IC50 on HL-60 cells
From the text: as §1, §2, §3, §4, §5

[2] = HL-60 cells, MTS, read-out: IC50 HL-60

C[C@H](Nc1c(-c2c(F)cc(OCCCN(C)C)cc2F)c(Cl)nc2ncnn12)C(F)(F)F.Cl [Example 1a, 5-chloro-6-{4-[3-(dimethylamino)propoxy]-2,6-difluorophenyl}-N-[(1S)-2,2,2-trifluoro-1-methylethyl][1,2,4]triazolo[1,5-a]pyrimidin-7-amine hydrogen chloride Salt]
IC50 (HL-60 cells; [2]): 71 nM
T/C on day 0 ([1]; DLD1, 10 mg/kg IV): 1.00
T/C on day 7 ([1]; DLD1, 10 mg/kg IV): 0.63
T/C on day 14 ([1]; DLD1, 10 mg/kg IV): 0.51
T/C on day 21 ([1]; DLD1, 10 mg/kg IV): 0.58
T/C on day 0 ([1]; DLD1, 15 mg/kg IV): 1.00
T/C on day 7 ([1]; DLD1, 15 mg/kg IV): 0.21**
T/C on day 14 ([1]; DLD1, 15 mg/kg IV): 0.25
T/C on day 21 ([1]; DLD1, 15 mg/kg IV): 0.31
T/C on day 0 ([1]; DLD1, 20 mg/kg IV): 1.00
T/C on day 7 ([1]; DLD1, 20 mg/kg IV): 0.31**
toxicity of treatment dose ([1]; DLD1 xenograft mice, 20 mg/kg IV, day 14): Toxic
IC50 (HL-60/ADR cells): 63 nM
Ratio (HL-60/ADR cells): 0.89

CNCCCOc1cc(F)c(-c2c(Cl)nc3ncnn3c2N[C@@H](C)C(F)(F)F)c(F)c1.Cl [Example 2a, 5-Chloro-6-{2,6-difluoro-4-[3-(methylamino)propoxy]phenyl}-N-[(1S)-2,2,2-trifluoro-1-methylethyl][1,2,4]triazolo[1,5-a]pyrimidin-7-amine hydrogen chloride]
IC50 (HL-60 cells; HL-60, read-out: IC50 HL-60): 43 nM
T/C on day 0 ([1]; DLD1, 10 mg/kg IV): 1.00
T/C on day 7 ([1]; DLD1, 10 mg/kg IV): 0.66
T/C on day 14 ([1]; DLD1, 10 mg/kg IV): 0.65
T/C on day 21 ([1]; DLD1, 10 mg/kg IV): 0.72
T/C on day 0 ([1]; DLD1, 15 mg/kg IV): 1.00
T/C on day 7 ([1]; DLD1, 15 mg/kg IV): 0.59
T/C on day 14 ([1]; DLD1, 15 mg/kg IV): 0.54
T/C on day 21 ([1]; DLD1, 15 mg/kg IV): 0.74
T/C on day 0 ([1]; DLD1, 20 mg/kg IV): 1.00
T/C on day 7 ([1]; DLD1, 20 mg/kg IV): 0.46*
T/C on day 14 ([1]; DLD1, 20 mg/kg IV): 0.33
T/C on day 21 ([1]; DLD1, 20 mg/kg IV): 0.53
IC50 (HL-60/ADR cells): 47 nM
Ratio (HL-60/ADR cells): 1.1

CNCCCOc1cc(F)c(-c2c(Cl)nc3ncnn3c2NCC(F)(F)F)c(F)c1.Cl [Example 3a, 5-Chloro-6-{2,6-difluoro-4-[3-(methylamino)propoxy]phenyl}-N-(2,2,2-trifluoroethyl)[1,2,4]triazolo[1,5-a]pyrimidin-7-amine hydrogen chloride Salt]
IC50 (HL-60 cells; [2]): 26 nM
T/C on day 0 ([1]; DLD1, 10 mg/kg IV): 1.00
T/C on day 7 ([1]; DLD1, 10 mg/kg IV): 0.77
T/C on day 14 ([1]; DLD1, 10 mg/kg IV): 0.75
T/C on day 21 ([1]; DLD1, 10 mg/kg IV): 0.84
T/C on day 0 ([1]; DLD1, 20 mg/kg IV): 1.00
T/C on day 7 ([1]; DLD1, 20 mg/kg IV): 0.55
T/C on day 14 ([1]; DLD1, 20 mg/kg IV): 0.56
T/C on day 21 ([1]; DLD1, 20 mg/kg IV): 0.73
T/C on day 0 ([1]; DLD1, 25 mg/kg IV): 1.00
T/C on day 7 ([1]; DLD1, 25 mg/kg IV): 0.59
T/C on day 14 ([1]; DLD1, 25 mg/kg IV): 0.46
T/C on day 21 ([1]; DLD1, 25 mg/kg IV): 0.60
IC50 (HL-60/ADR cells; HL-60/ADR cells, MTS): 21 nM
Ratio (HL-60/ADR cells): 0.81

CN(C)CCCOc1cc(F)c(-c2c(Cl)nc3ncnn3c2NCC(F)(F)F)c(F)c1.Cl [Example 4a, 5-Chloro-6-{4-[3-(dimethylamino)propoxy]-2,6-difluorophenyl}-N-(2,2,2-trifluoroethyl)[1,2,4]triazolo[1,5-a]pyrimidin-7-amine Hydrogen chloride Salt]
IC50 (HL-60 cells; [2]): 52 nM
T/C on day 0 ([1]; DLD1, 10 mg/kg IV): 1.00
T/C on day 7 ([1]; DLD1, 10 mg/kg IV): 0.56
T/C on day 14 ([1]; DLD1, 10 mg/kg IV): 0.68
T/C on day 21 ([1]; DLD1, 10 mg/kg IV): 0.74
T/C on day 0 ([1]; DLD1, 20 mg/kg IV): 1.00
T/C on day 7 ([1]; DLD1, 20 mg/kg IV): 0.55
T/C on day 14 ([1]; DLD1, 20 mg/kg IV): 0.44
T/C on day 21 ([1]; DLD1, 20 mg/kg IV): 0.61
T/C on day 0 ([1]; DLD1, 25 mg/kg IV): 1.00
T/C on day 7 ([1]; DLD1, 25 mg/kg IV): 0.63
T/C on day 14 ([1]; DLD1, 25 mg/kg IV): 0.49
T/C on day 21 ([1]; DLD1, 25 mg/kg IV): 0.48
IC50 (HL-60/ADR cells; HL-60/ADR cells, MTS): 34 nM
Ratio (HL-60/ADR cells): 0.65

C[C@H](Nc1c(-c2c(F)cc(OCCCO)cc2F)c(Cl)nc2ncnn12)C(F)(F)F [Example 20, 3-[4-(5-Chloro-7-{[(1S)-2,2,2-trifluoro-1-methylethyl]amino}[1,2,4]triazolo[1,5-a]pyrimidin-6-yl)-3,5-difluorophenoxy]propan-1-ol]
IC50 (HL-60 cells; [2]): 155 nM
IC50 (HL-60/ADR cells; HL-60/ADR cells, MTS): 74 nM
Ratio (HL-60/ADR cells): 0.48

C[C@H](Nc1c(-c2c(F)cc(OCCCN(C)C)cc2F)c(Br)nc2ncnn12)C(F)(F)F [Example 25, 5-Bromo-6-{4-[3-(dimethylamino)propoxy]-2,6-difluorophenyl}-N-[(1S)-2,2,2-trifluoro-1-methylethyl][1,2,4]triazolo[1,5-a]pyrimidin-7-amine]
IC50 (HL-60 cells; [2]): 104 nM
IC50 (HL-60/ADR cells; HL-60/ADR cells, MTS): 68 nM
Ratio (HL-60/ADR cells): 0.65

OCCCOc1cc(F)c(-c2c(Cl)nc3ncnn3c2C2CCCCCC2)c(F)c1 [Example 30, 3-[4-(5-Chloro-7-cycloheptyl[1,2,4]triazolo[1,5-a]pyrimidin-6-yl)-3,5-difluorophenoxy]propan-1-ol]
IC50 (HL-60 cells; [2]): 55 nM
IC50 (HL-60/ADR cells; HL-60/ADR cells, MTS): 52 nM
Ratio (HL-60/ADR cells): 0.94

CNCCCOc1cc(F)c(-c2c(Cl)nc3ncnn3c2C2CCCCCC2)c(F)c1.O=C(O)C(F)(F)F [Example 32, 3-[4-(5-Chloro-7-cycloheptyl[1,2,4]triazolo[1,5-a]pyrimidin-6-yl)-3,5-difluorophenoxy]-N-methylpropan-1-amine trifluoroacetic acid salt]
IC50 (HL-60 cells; [2]): 7.1 nM
IC50 (HL-60/ADR cells; HL-60/ADR cells, MTS): 6.6 nM
Ratio (HL-60/ADR cells): 0.92

CC(=O)O[C@H]1C(=O)[C@@]2(C)[C@H]([C@H](OC(=O)c3ccccc3)[C@]3(O)C[C@H](OC(=O)[C@H](O)[C@@H](NC(=O)c4ccccc4)c4ccccc4)C(C)=C1C3(C)C)[C@]1(OC(C)=O)CO[C@@H]1C[C@@H]2O [Paclitaxel, reference compound]
IC50 (HL-60 cells; [2]): 5.7 nM
IC50 (HL-60/ADR cells; HL-60/ADR cells, MTS): 6.4 nM
Ratio (HL-60/ADR cells): 1.1

CC[C@]1(O)C[C@H]2CN(CCc3c([nH]c4ccccc34)[C@@](C(=O)OC)(c3cc4c(cc3OC)N(C=O)[C@H]3[C@@](O)(C(=O)OC)[C@H](OC(C)=O)[C@]5(CC)C=CCN6CC[C@]43[C@@H]65)C2)C1 [Vincristine, reference compound]
IC50 (HL-60 cells; [2]): 2.5 nM
IC50 (HL-60/ADR cells; HL-60/ADR cells, MTS): 20 nM
Ratio (HL-60/ADR cells): 8.2
